In US5112615A, “Soluble hirudin conjugates” (New England Deaconess Hospital Corporation, priority 1990, dated 1992):

What was measured:
thrombin = thrombin (Homo sapiens, UniProt P00734); assay: Kinetic evaluation of thrombin inhibition (Lineweaver-Burke and Dixon plot analyses); format: biochemical
From the text: Using a known amount of thrombin, a standard curve is constructed with known amount of hirudin or hirudin analog by adding hirudin to thrombin, and measuring residual thrombin activity using […] substrate S-2238. Thrombin inhibition by derivatized hirudin (hirudin-SPDP) or immobilized hirudin (the polyethylene terphthalate material with immobilized hirudin) is then compared to nonderivatized hirudin values by equating ED50 values using 10 NIH units/ml thrombin, and measuring residual thrombin activity.
Peak 3 conjugate material (shown in FIG. 4C and lane A in FIG. 5A) is evaluated by kinetic analysis. Kinetic evaluation of the ability of the peak 3 conjugate to inhibit thrombin activity is compared to hirudin alone. […] These determinations are made by Lineweaver-Burke and Dixon plot analyses. The inhibitor constant for hirudin is determined to be 1.7×10^-12. The inhibitor constant for the conjugate is 1.8×10^-11. There is a 10-fold loss in binding affinity when comparing the Ki values of hirudin to the conjugate, respectively. In a biologic or physiologic system, the different abilities of hirudin and conjugate to inhibit thrombin are insignificant.

[1] = system: thrombin-mediated platelet aggregation; assay: Inhibition of thrombin-mediated platelet aggregation and simultaneous ATP release (whole blood platelet aggregometer); format: cell-based; settings: Thrombin 0.1 NIHU
From the text: Investigation of the biologic activity of hirudin covalently linked to albumin is examined by inhibiting thrombin-mediated platelet aggregation. A whole blood platelet aggregometer (Chronolog Corp., Havertown, PA) is used to measure platelet aggregation and simultaneous ATP release. Platelet aggregation is selected to quantify inhibition of thrombin events other than fibrin formation.

blood = assay: Thrombin time of blood containing inhibitor; settings: 0.2 ATU/ml blood sample
Procedure: In addition, hirudin conjugated to a stable, soluble molecule increases hirudin stability in the bloodstream. For example, 0.1 anti-thrombin units (ATU) of hirudin conjugate standard/ml of blood increases normal thrombin time to 45 seconds. A blood sample containing 0.2 ATU of unconjugated hirudin/ml increases patient thrombin time to 90 seconds. Using this knowledge, the amount of hirudin in a patient's plasma can be calculated to be 0.15 ATU if the patient's thrombin time is determined to be 68 seconds.

hirudin
type of inhibition (thrombin): noncompetitive inhibitor of a linear mixed type | % Inh. ATP Release ([1]; inhibitor 0.12 ATU): 56% | % Inh. Plate. Aggreg. ([1]; inhibitor 0.12 ATU): 52% | ATP Release ([1]; inhibitor 0.12 ATU): 0.60 µM | Aggreg. OHMS/6 min. ([1]; inhibitor 0.12 ATU): 15.7 OHMS/6 min. | % Inh. ATP Release ([1]; inhibitor 1.15 ATU): 100% | % Inh. Plate. Aggreg. ([1]; inhibitor 1.15 ATU): 100% | ATP Release ([1]; inhibitor 1.15 ATU): 0 µM | Aggreg. OHMS/6 min. ([1]; inhibitor 1.15 ATU): 0 OHMS/6 min. | thrombin time (blood): 90 s
